According to patent publication US20260285853A1, “COMPOUNDS AND METHODS FOR MODULATING SPLICING” (REMIX THERAPEUTICS INC., priority 2023, published 2026):
Where a name gives a salt, the structure may show the parent alone.

Legend:
Format in all cases: cell-based
[1] = tested on: HTT mRNA; assay: Splicing RT-qPCR assay (THP), Table 2A; conditions: Table 2A, THP; for AC50: HTT alternative junction (AJ) mRNA, read-out: HTT AJ (AC50, increase in alternative junction mRNA); for IC50: HTT canonical junction (CJ) mRNA, read-out: HTT CJ (IC50, decrease in canonical junction mRNA)
[2] = tested on: MYB mRNA; assay: Splicing RT-qPCR assay (THP), Table 2A; conditions: Table 2A, THP; for AC50: MYB alternative junction (AJ) mRNA, read-out: MYB AJ (AC50, increase in alternative junction mRNA); for IC50: MYB canonical junction (CJ) mRNA, read-out: MYB CJ (IC50, decrease in canonical junction mRNA)
[3] = tested on: HTT mRNA; assay: Gene panel canonical junction qPCR assay, decrease in CJ mRNA, Table 3; conditions: decrease in CJ mRNA levels, canonical junction qPCR, gene panel
How it was run: (§1)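 Canonical exon-junction (CJ) transcript measured by 5′ nuclease RT-qPCR, normalized to GAPDH, GUSB or PPIA and to DMSO control (2^(−ΔΔCt)). A673 or K562 cells treated 24 h at 37° C with an 11-point 3-fold dilution series, top 10 uM, DMSO ≤0.25%. IC50 from 4-parameter logistic fit of percentage CJ decrease.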

[4] = tested on: MYB mRNA; assay: as above; conditions: decrease in CJ mRNA levels, canonical junction qPCR, gene panel
How it was run: as §1

[5] = tested on: SH-SY5Y (human neuroblastoma) cells; assay: Cell viability, Cell Titer Glo 2.0 assay; conditions: read-out: Viability SHSY5Y.3 GI50
How it was run: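 SH-SY5Y cells were exposed to serially diluted compounds in IMDM with 10% FBS and 0.1% DMSO for 72 hours at 37° C., 5% CO2. Viability was measured by CellTiter-Glo 2.0 luminescence, with medium-only wells as blank.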

Structure (SMILES) | AC50 [1] [µM] | IC50 [1] [µM] | AC50 [2] [µM] | IC50 [2] [µM] | IC50 [3] [µM] | IC50 [4] [µM] | GI50 [5] [µM]
Cn1cc2cc(NC(=O)c3ccc(N4CCC(NC5CC5)CC4)c4cn(C)nc34)cc(CN3CCCS3(=O)=O)c2n1 [Compound 818, 4-(4-(cyclopropylamino)piperidin-1-yl)-N-(7-((1,1-dioxidoisothiazolidin-2-yl)methyl)-2-methyl-2H-indazol-5-yl)-2-methyl-2H-indazole-7-carboxamide hydrochloride] | > 10 | > 10 | > 10 | > 10 | > 10 | > 10 | > 10
COc1c(NC(=O)c2ccc(N3CCC(NC4CC4)CC3)c3cn(C)nc23)cc2cn(C)nc2c1CNS(C)(=O)=O [Compound 819] | 1 to 10 | 1 to 10 | 1 to 10 | 1 to 10 | 1 to 10 | 1 to 10 | 1 to 10
CCNC1CCN(c2ccc(C(=O)Nc3cc(CN4CCCC4=O)c4nn(C)cc4c3)c3nn(C)cc23)CC1 [Compound 820, 4-[4-(ethylamino)-1-piperidyl]-2-methyl-N-[2-methyl-7-[(2-oxopyrrolidin-1-yl)methyl]indazol-5-yl]indazole-7-carboxamide] | > 10 | > 10 | > 10 | 1 to 10 | > 10 | 1 to 10 | > 10
COc1cc2c(N3CCC(NC4CC4)CC3)ccc(C(=O)Nc3cc(CNS(C)(=O)=O)c4nn(C)cc4c3)n2n1 [Compound 821] | > 10 | 1 to 10 | 0.1 to 1 | 0.1 to 1 | 1 to 10 | 0.1 to 1 | 1 to 10
Cc1cc2c(N3CCC(NC4CC4)CC3)ccc(C(=O)Nc3cc(CNS(C)(=O)=O)c4nn(C)cc4c3)n2n1 [Compound 822] | > 10 | > 10 | 0.1 to 1 | 0.1 to 1 | > 10 | 0.1 to 1 | 0.1 to 1
Cn1cc2cc(NC(=O)c3ccc(N4CCC(NC5CC5)CC4)c4cn(C)nc34)cc(Cn3ccnn3)c2n1 [Compound 823] | > 10 | > 10 | 0.1 to 1 | 1 to 10 | > 10 | 1 to 10 | 1 to 10
Cn1cc2cc(NC(=O)c3ccc(N4CCC(NC5CC5)CC4)c4cn(C)nc34)cc(Cn3nccn3)c2n1 [Compound 824] | > 10 | > 10 | 1 to 10 | 1 to 10 | > 10 | 1 to 10 | 1 to 10
CNC1CCN(c2ccc(C(=O)Nc3cn4cc(C)nc(CNS(C)(=O)=O)c4n3)c3nn(C)cc23)CC1 [Compound 825] | > 10 | > 10 | 1 to 10 | 1 to 10 | > 10 | 1 to 10 | > 10
Cc1cn2cc(NC(=O)c3ccc(N4CCC5(CCCN5)CC4)c4cn(C)nc34)nc2c(CNS(C)(=O)=O)n1 [Compound 826] | > 10 | > 10 | > 10 | > 10 | > 10 | > 10 | > 10
Cc1cn2cc(NC(=O)c3ccc(N4CCC(NC5CC5)CC4)c4cn(C)nc34)nc2c(CNC(N)=O)n1 [Compound 829] | > 10 | > 10 | > 10 | > 10 | > 10 | > 10 | > 10
Cc1cn2cc(NC(=O)c3ccc(N4CCC(NC5CC5)CC4)c4cn(C)nc34)nc2c(Cn2cnc3c(N)ncnc32)n1 [Compound 830] | > 10 | > 10 | > 10 | > 10 | > 10 | > 10 | > 10
Cc1cn2cc(NC(=O)c3ccc(N4CCC(NC5CC5)CC4)c4cn(C)nc34)nc2c(Cn2cnc3ncnc(N)c32)n1 [Compound 831] | 0.1 to 1 | 0.1 to 1 | 0.1 to 1 | 0.1 to 1 | 0.1 to 1 | 0.1 to 1 | 0.1 to 1
CNS(=O)(=O)CCc1nc(C)cn2cc(NC(=O)c3ccc(N4CCC(NC5CC5)CC4)c4cn(C)nc34)nc12 [Compound 832] | 1 to 10 | 1 to 10 | 1 to 10 | 1 to 10 | 1 to 10 | 1 to 10 | 1 to 10
C=CCNC1CCN(c2ccc(C(=O)Nc3cc(CNC(=O)OC)c4nn(C)cc4c3)c3nn(C)cc23)CC1 [Compound 833] | 1 to 10 | 1 to 10 | 0.1 to 1 | 0.1 to 1 | 1 to 10 | 0.1 to 1 | 1 to 10
Cn1cc2cc(NC(=O)c3ccc(N4CCC(NC5CC5)CC4)c4cn(C)nc34)cc(CNC3(C)COC3)c2n1 [Compound 834] | > 10 | > 10 | > 10 | > 10 | > 10 | > 10 | > 10
C=CCNC1CCN(c2ccc(C(=O)Nc3cc(CNC4(C)COC4)c4nn(C)cc4c3)c3nn(C)cc23)CC1 [Compound 835] | > 10 | > 10 | > 10 | > 10 | > 10 | > 10 | > 10
C=CCNC1CCN(c2ccc(C(=O)Nc3cc(CNS(C)(=O)=O)c4nc(C)cn4c3)c3nn(C)cc23)CC1 [Compound 836, 4-[4-(allylamino)-1-piperidyl]-N-[8-(methanesulfonamidomethyl)-2-methyl-imidazo[1,2-a]pyridin-6-yl]-2-methyl-indazole-7-carboxamide] | > 10 | > 10 | 0.1 to 1 | 0.1 to 1 | > 10 | 0.1 to 1 | 1 to 10
Cc1cn2cc(NC(=O)c3ccc(N4CCC(NC5CC5)CC4)c4cn(C)nc34)nc(CNS(C)(=O)=O)c2n1 [Compound 837, 4-[4-(cyclopropylamino)-1-piperidyl]-N-[8-(methanesulfonamidomethyl)-2-methyl-imidazo[1,2-a]pyrazin-6-yl]-2-methyl-indazole-7-carboxamide] | 1 to 10 | 1 to 10 | < 0.1 | < 0.1 | 1 to 10 | < 0.1 | 0.1 to 1
COc1cc2c(N3CCC(NC4CC4)CC3)ccc(C(=O)Nc3cc(CNS(C)(=O)=O)c4nc(C)cn4c3)n2n1 [Compound 838] | > 10 | > 10 | 1 to 10 | 1 to 10 | > 10 | 1 to 10 | 1 to 10
Cc1cn2c(N3CCC(NC4CC4)CC3)ccc(C(=O)Nc3cc(CNS(C)(=O)=O)c4nn(C)cc4c3)c2n1 [Compound 839] | 1 to 10 | 1 to 10 | 0.1 to 1 | 0.1 to 1 | 1 to 10 | 0.1 to 1 | 1 to 10
Cn1cc2cc(NC(=O)c3ccc(N4CCC(NC5CC5)CC4)c4cn(C)nc34)cc(CCNS(C)(=O)=O)c2n1 [Compound 840] | > 10 | 1 to 10 | 1 to 10 | 1 to 10 | 1 to 10 | 1 to 10 | > 10
